From PMC9732821, “Neurotrophic Activity and Its Modulation by Zinc Ion of a Dimeric Peptide Mimicking the Brain-Derived Neurotrophic Factor N-Terminal Region” (ACS Chemical Neuroscience, 2022)

B1: brain-derived neurotrophic factor (protein, UniProt P23560 1-247, looked up)
chain: MTILFLTMVISYFGCMKAAPMKEANIRGQGGLAYPGVRTHGTLESVNGPKAGSRGLTSLADTFEHVIEELLDEDQKVRPNEENNKDADLYTSRVMLSSQVPLEPPLLFLLEEYKNYLDAANMSMRVRRHSDPARRGELSVCDSISEWVTAADKKTAVDMSGGTVTVLEKVPVSKGQLKQYFYETKCNPMGYTKEGCRGIDKRHWNSQCRTTQSYVRALTMDSKKRIGWRFIRIDTSCVCTLTIKRGR
modifications: full-length
notes: full-length human BDNF produced recombinantly in Escherichia coli

System: ERK
Assay: ERK phosphorylation, in cell ELISA in differentiated SH-SY5Y cells
Format: cell-based, human
Conditions: for ERK phosphorylation increase vs unstimulated control: 10 min, 150 ng/mL BDNF or 10 μM peptide, three independent replicas in duplicate; for EC50 / maximal effect (Emax) of ERK phosphorylation: dose–response, differentiated SH-SY5Y, two independent replicas in duplicate; for maximal effect (Emax) of ERK phosphorylation: BDNF and d-bdnf not significantly different
Protocol: Figure 1 Activation of the TrkB receptor by BDNF and its mimetic peptide ligands. (A) Schematic picture of the human TrkB receptor fused to the EGFP construct (hTrkB-EGFP); recombinant human mature BDNF (hBDNF); monomeric peptide, m-bdnf; dimeric peptide, d-bdnf; scrambled s-bdnf. (B) WB showing Tyr phosphorylation (p-Tyr, top) and total TrkB levels (bottom) in SH-SY5Y cells transfected with hTrkB-EGFP in the absence (ctrl) or presence of 10 min stimulation with 150 ng/mL BDNF or 10 μM m-bdnf, d-bdnf, or s-bdnf. Samples were immunoprecipitated (IP) with the anti-GFP antibody before WB. The relative density of the bands is reported on the right of the blots, as mean ± SEM of five (BDNF) and four (peptides) independent replicas; each p-Tyr band density was divided for the respective TrkB band and normalized to the ctrl signal (***p < 0.001, *p < 0.05 vs ctrl, according to one-way ANOVA with Bonferroni’s multiple comparison test). (C) Scatter dot plot of ERK (left) and AKT (right) phosphorylation levels detected in differentiated SH-SY5Y cells, after stimulation with the same treatments as in (B). Phosphorylation levels were normalized to the cell number and reported as percentage versus the ctrl. Data ± SD were pooled from three independent replicas performed in duplicate. (D) ERK phosphorylation dose–response curve of BDNF and d-bdnf. Data ± SEM were pooled from two independent replicas performed in duplicate. (E) Intensity image of a TrkB-EGFP transfected cell (scale bar 10 μm). White square defines a region of the image that contains both the cell membrane and the background signal. […] The dashed black lines identify the mean values of B for the monomer and the dimer, as indicated. (G) Bar graph of mean ± SD ‘B-1’ values retrieved from N&B analysis for all the different conditions measured. The horizontal dashed lines indicate the ‘B-1’ average values assigned to the monomer (based on data from f-EGFP) and the dimer. Data (round circles) were pooled from two independent experiments. A one-way ANOVA with Dunnett’s multiple comparisons test was applied to compare data to the f-EGFP reference (*p < 0.05, ***p < 0.001, ****p < 0.0001). […]
ERK and AKT phosphorylation were assessed in a 96-well plate format, performing an in cell ELISA assay as previously described 4. SH-SY5Y or HEK 293T cells were seeded at a density of 5.000 and 80.000 cell/well in 96 multiwell respectively, and the former were differentiated as describe above.
Cells were treated as described for TrkB phosphorylation or reported in the graphs, then washed with 0.1% Triton X-100 in PBS and fixed with 4% paraformaldehyde. Cells were then permeabilized (1% BSA; 0.1% Triton X-100 in PBS) for 1 hour, at the end, cells were incubated overnight at 4°C with anti-phospho ERK (1:500, sc-7383, Santa Cruz) or phosphor AKT (1:500, sc-16646-R-, Santa Cruz) antibodies. Next day, after the incubation with HRP-conjugated secondary antibody (anti-mouse # 31430, Invitrogen; anti-rabbit A0545, Sigma-Aldrich) the TMB substrate was added and the absorbance was read at 450 nm. Cells were incubated with only the secondary antibody to obtain the aspecific binding (Blanks). The absorbances were normalized to the relative number of cells in each well that was determined using Crystal Violet staining. […]
°C with chicken anti-BDNF (1:100, G164A Promega) antibody diluted in 2.5% BSA/PBS. The next morning samples were incubated with an Alexa568-conjugated anti-chicken secondary antibody (1:500, Thermofisher) in 2.5% BSA/PBS for 2h at room temperature. Coverslips were mounted with Fluoroshield-DAPI (Sigma-Aldrich) and imaged with a laser scanning confocal microscope (Nikon A1, Eclipse Ti), using a 60× oil objective (NA 1 .40) and pinhole set to 1 AU. Images were acquired […]
nm laser (emission window 545-645 nm). BDNF fluorescence intensity was analysed using FIJI ImageJ software. Briefly, the background intensity was subtracted from all red channel fields and an […]

Row | Molecule | ERK phosphorylation increase vs unstimulated control | EC50 [µM] | maximal effect (Emax) of ERK phosphorylation | EC50 (referred to the monomer form) [µM]
1 | HSDPARRGELSV-NH2 [m-bdnf, linear peptide fragment encompassing the first 12 amino acids of the mature NT N-terminal] | only BDNF and d-bdnf were able to induce a significant ERK and AKT phosphorylation increase | – | – | –
2 | HSDPARRGELSVC-C-VSLEGRRAPDSH (disulfide) [d-bdnf] | significant ERK and AKT phosphorylation increase | 13.6 ± 3.87 | 227.3 ± 6.3 | –
3 | SRAGPHLRDVSE-NH2 [s-bdnf] | only BDNF and d-bdnf were able to induce a significant ERK and AKT phosphorylation increase | – | – | –
4 | B1 | significant ERK and AKT phosphorylation increase | – | 237.1 ± 5.0 | 0.00069 ± 0.00024
